The values that follow come from patent US7919622B2, “Intermediates for fluorinated tetrabenazine carbinol compounds imaging agents and probes” (priority 2007, dated 2011).

pKi: −log10 of the molar value.

This assay concerns the target T1, VMAT-2 (Homo sapiens, UniProt Q05940).
T1 construct: Novascreen Biosciences Corporation (contract assay provider) protocol Cat. No. 100-0751
The assay can be described thus: VMAT-2 binding affinity measurement (Novascreen protocol Cat. No. 100-0751). The note with it: for pKi: VMAT-2 binding affinity, reserpine value is the average of two Ki values; for binding affinity for VMAT-2 (in words): relative to reserpine and DTBZ controls. From the text:
Novascreen, Inc. is a commercial provider of biological assays for the pharmaceutical industry. […] In addition, the binding constants Ki expressed in nano-molar (nM) concentration units indicate a very high affinity of the fluoroalkyl tetrabenazine carbinol compounds of the present invention for the VMAT-2 biomarker.

T1 sequence (Q05940 whole entry, species assumed): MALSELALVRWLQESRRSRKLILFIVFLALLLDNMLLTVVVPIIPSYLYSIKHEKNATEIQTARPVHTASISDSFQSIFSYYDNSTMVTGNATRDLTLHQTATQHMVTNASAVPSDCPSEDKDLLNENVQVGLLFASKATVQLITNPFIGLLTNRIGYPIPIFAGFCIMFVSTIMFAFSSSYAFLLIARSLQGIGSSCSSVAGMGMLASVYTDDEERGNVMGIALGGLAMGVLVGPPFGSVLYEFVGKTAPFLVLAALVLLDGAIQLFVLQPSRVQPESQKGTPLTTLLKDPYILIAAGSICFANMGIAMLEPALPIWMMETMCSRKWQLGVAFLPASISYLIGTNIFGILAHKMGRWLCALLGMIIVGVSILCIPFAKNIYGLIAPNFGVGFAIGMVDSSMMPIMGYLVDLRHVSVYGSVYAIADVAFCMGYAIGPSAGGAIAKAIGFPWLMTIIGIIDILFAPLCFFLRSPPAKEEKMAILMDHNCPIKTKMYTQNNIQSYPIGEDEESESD

With `COc1cc2c(cc1OC)[C@H]1C[C@@](C#CCF)(OC(C)=O)[C@H](CC(C)C)CN1CC2` [Compound 16, (2R,3R,11bR)-2-(3-fluoroprop-1-ynyl)-3-isobutyl-9,10-dimethoxy-2,3,4,6,7,11b-hexahydro-1-H-pyrido[2,1-α]isoquinolin-2-yl acetate], the pKi was 7.72 and the “binding affinity for VMAT-2 (in words)” value was “very high binding affinity”.

Take `COc1cc2c(cc1OC)[C@H]1C[C@](O)(C#CCF)[C@H](CC(C)C)CN1CC2` [Compound 17]: the pKi was 7.72 and the “binding affinity for VMAT-2 (in words)” value is on record as “very high binding affinity”.
